Laboratory results from article PMC6258903 (Nature, 2014).
One block for each molecule: values may come before it.

Experiments:
Axl = molecular target: T1, Axl (Homo sapiens, UniProt P30530); assay: Tracer-based kinase binding assay
T1 sequence (P30530 26-894): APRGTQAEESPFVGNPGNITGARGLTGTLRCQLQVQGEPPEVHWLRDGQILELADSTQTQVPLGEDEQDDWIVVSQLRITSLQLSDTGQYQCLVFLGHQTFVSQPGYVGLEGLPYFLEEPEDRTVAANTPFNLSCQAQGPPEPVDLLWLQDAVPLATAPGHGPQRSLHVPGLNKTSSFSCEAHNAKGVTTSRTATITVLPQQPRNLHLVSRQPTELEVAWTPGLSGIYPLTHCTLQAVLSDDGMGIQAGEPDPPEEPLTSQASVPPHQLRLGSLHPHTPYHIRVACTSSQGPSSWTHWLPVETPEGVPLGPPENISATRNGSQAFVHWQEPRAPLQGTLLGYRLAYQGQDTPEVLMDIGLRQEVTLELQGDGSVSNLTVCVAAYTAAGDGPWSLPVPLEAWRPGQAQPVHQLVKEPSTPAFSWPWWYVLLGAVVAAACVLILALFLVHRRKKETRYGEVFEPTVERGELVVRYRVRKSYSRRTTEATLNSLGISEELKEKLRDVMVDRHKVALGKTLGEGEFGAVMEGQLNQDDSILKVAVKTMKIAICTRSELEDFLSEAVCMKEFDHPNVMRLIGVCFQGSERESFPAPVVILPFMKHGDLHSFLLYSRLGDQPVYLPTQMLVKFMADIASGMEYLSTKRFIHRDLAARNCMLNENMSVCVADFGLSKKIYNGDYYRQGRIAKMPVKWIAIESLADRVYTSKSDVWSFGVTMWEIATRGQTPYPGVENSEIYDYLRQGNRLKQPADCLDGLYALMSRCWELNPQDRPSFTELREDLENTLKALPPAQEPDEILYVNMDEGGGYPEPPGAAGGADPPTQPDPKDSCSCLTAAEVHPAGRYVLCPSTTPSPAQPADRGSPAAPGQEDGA

[1] = tested on: 95 different cancer cell lines; assay: Proliferation assay on a panel of cancer cell lines; type: cell-based
B16F10 melanoma = assay: B16F10 metastatic melanoma model, low dose warfarin in drinking water; type: in vivo, mice; conditions: for melanoma metastases to the lungs and distal organs: low dose warfarin 0.5mg/l in drinking water
RMA-S cells = assay: In vivo NK cell cytotoxicity towards RMA-S cells; conditions: Cbl-b+/+ mice treated for 7 days before inoculation
RMA-Rae1 cells = assay: In vivo NK cell cytotoxicity towards RMA-Rae1 cells; conditions: warfarin, Cbl-b+/+ mice treated for 7 days before inoculation
[2] = Prothrombine time and bleeding in warfarin-treated mice

inhibitory activity of reference compounds in the Axl HTRF assay (Axl): showed inhibitory activities as expected
Compound: CCOc1ccn(-c2ccc(F)cc2)c(=O)c1C(=O)Nc1ccc(Oc2ccnc(N)c2Cl)c(F)c1 [BMS-777607/ASLAN002]

IC50 ([1]; read-out: IC50 proliferation, non-specific kinase inhibitors): < 0.1 µM
Compound: Cc1nc(Nc2ncc(C(=O)Nc3c(C)cccc3Cl)s2)cc(N2CCN(CCO)CC2)n1 [dasatinib]

Compound: Cc1ccc(NC(=O)c2ccc(CN3CCN(C)CC3)cc2)cc1Nc1nccc(-c2cccnc2)n1 [imatinib]
proliferation inhibition profile, specific kinase blockers ([1]; same panel, e.g. K562 cells): inhibit proliferation of only a few cell lines

Compound: CN[C@@H]1C[C@H]2O[C@@](C)([C@@H]1OC)n1c3ccccc3c3c4c(c5c6ccccc6n2c5c31)C(=O)NC4 [staurosporine]
inhibitory activity of reference compounds in the Axl HTRF assay (Axl): showed inhibitory activities as expected

inhibitory activity of reference compounds in the Axl HTRF assay (Axl): showed inhibitory activities as expected
Compound: CCN(CC)CCNC(=O)c1c(C)[nH]c(/C=C2\C(=O)Nc3ccc(F)cc32)c1C [sunitinib]

prothrombine time / coagulopathy ([2]; 0.5mg/l in drinking water for 21 days): does not cause a coagulopathy
Compound: CC(=O)CC(c1ccccc1)c1c(O)c2ccccc2oc1=O (stereo not drawn) [warfarin]
melanoma metastases to the lungs and distal organs (B16F10 melanoma; Cbl-b defective mice): had no apparent effect
melanoma metastases to the lungs and distal organs (B16F10 melanoma; Cbl-b+/+ and Cbl-b+/- mice, day +16): markedly reduced melanoma metastases
metastatic melanomas (B16F10 melanoma; low dose warfarin, absence of NK1.1+ cells): abolished the effects of warfarin
in vivo NK cell cytotoxicity towards RMA-S (RMA-S cells): enhanced in vivo NK cell cytotoxicity
in vivo NK cell cytotoxicity towards RMA-Rae1 (RMA-Rae1 cells): enhanced in vivo NK cell cytotoxicity
bleeding ([2]; warfarin-treated mice compared to vehicle controls): never observed neither spontaneous nor excessive bleeding
